Data on 4 compounds can be found in patent US20260317327A1, “CRYSTRAL OF QUINOLINE-SUBSTITUTED COMPOUND” (TAIHO PHARMACEUTICAL CO., LTD., priority 2023, published 2026).

The nature of data set [1]: Solid stability test (closed system, storage at 60 °C or 80 °C, HPLC purity, crystal form, appearance). The following applies: for Change amount (purity) 2 weeks after / Purity 2 weeks after / Color tone change 2 weeks after / Change amount (purity) 4 weeks after / Purity 4 weeks after / Color tone change 4 weeks after: closed system; for Color tone change 2 weeks after / Color tone change 4 weeks after: visual; for Purity at the beginning: HPLC 220 nm. The class given is physicochemical. The method, then: A temperature influence was tested by using the type I crystal, solvate crystal type “b”, and amorphous solid of the compound (1) obtained in Example 1, Comparative Example 1, and Reference Example 1, respectively. An evaluation was performed by the following procedure. In addition, with regard to the appearances of the crystals and the amorphous solid, the states thereof before and after their storage were visually observed. • Storage condition: 60° C. or 80° C. (closed system) (HIFLEX (high-temperature storage machine manufactured by ETAC Engineering Co., Ltd.)) • Storage period: 2 weeks and 4 weeks • Storage amount: about 100 mg • Storage container: a glass bottle
A change in amount of related substances (amount of substances detected in addition to the compound (1)) was analyzed by HPLC in accordance with the following method. A product obtained as follows was used as a sample for analysis: about 1 mg of each sample was weighed as the compound (1); the sample was dissolved in 10 mL of a mixed liquid of acetonitrile and water (3:1 v/v); and 5 μL of the liquid was accurately weighed out.
The amount of the related substances in the sample solution was measured by HPLC analysis. The handling of each apparatus including data processing followed a method and a procedure instructed in the apparatus. • Column: InertSustain C18HP (4.6 mm×150 mm, 3 μm) manufactured by GL Sciences Inc. • UV detection: 220 nm • Column temperature: 40° C. • Flow rate: 1.0 mL/min • Sample cooler: 5° C. • Sample concentration: 0.1 mg/mL • Mobile phase A: 0.1% phosphoric acid • Mobile phase B: acetonitrile

A short description of data set [2]: Dynamic vapor sorption (DVS) test. The class given is physicochemical. On the procedure: A vapor sorption test was performed by using each of the type I crystal, solvate crystal type “b”, and amorphous solid of the compound (1) obtained in Example 1, Comparative Example 1, and Reference Example 1, respectively. The vapor sorption test was performed in accordance with the following conditions. About 10 mg of a sample was loaded into a dedicated holder made of quartz, and the weights of the sample at respective humidities were continuously measured and recorded under the following conditions.

Data set [3] in a line: Comparison of type I crystal with metastable crystal and hydrate crystal (hygroscopicity, storage stability; data not shown). Format: physicochemical. Particulars: compared to metastable crystal and hydrate crystal. The source says:
In addition to Comparative Example 1, a metastable crystal and a hydrate crystal of the compound (1) were obtained and compared with the type I crystal obtained according to the method described in Example 1.

The test system of the next data set is EGFR. Particulars: as disclosed in Patent Document 1 (WO 2015/025936 A1); cited from earlier work.

For the compound `C=CC(=O)N[C@H]1C=C(C)c2c(-c3cnc4ccccc4c3)c3c(N)ncnc3n2C1` [Solvate crystal type “b”, (S)—N-(4-amino-6-methyl-5-(quinolin-3-yl)-8,9-dihydropyrimido[5,4-b]indolizin-8-yl)acrylamide], in data set [1] (60 °C), the “Change amount (purity) 2 weeks after” value is given as −10.60%, the “Purity 2 weeks after” value came to 88.16%, the “Color tone change 2 weeks after” value is “Absent” and the “Change amount (purity) 4 weeks after” value is reported as −11.55%. For the same compound, in data set [1] (60 °C), the “Purity 4 weeks after” value is 87.21% and the “Color tone change 4 weeks after” value is reported as “Absent”. In data set [1] (80 °C), the “Change amount (purity) 2 weeks after” value is listed as −14.49%, the “Purity 2 weeks after” value came out at 84.57%, the “Color tone change 2 weeks after” value is on record as “Absent” and the “Change amount (purity) 4 weeks after” value is −15.38%. Also, in data set [1] (80 °C), the “Purity 4 weeks after” value is reported as 83.38% and the “Color tone change 4 weeks after” value is listed as “Absent”. In data set [1] (storage at 60 °C series), the “Purity at the beginning” value came to 98.76%. The “Purity at the beginning” value in data set [1] (storage at 80 °C series) amounted to 98.76%. Further, in data set [2] (5-95% RH, 25 °C), the “Weight increase profile (in words)” value is on record as “substantially linear weight increase starting from a low-humidity region”. The same compound came in with a Weight increase in data set [2] (95% RH, 25 °C) not below 5%.

Consider `C=CC(=O)N[C@H]1C=C(C)c2c(-c3cnc4ccccc4c3)c3c(N)ncnc3n2C1` [Type I crystal, (S)—N-(4-amino-6-methyl-5-(quinolin-3-yl)-8,9-dihydropyrimido[5,4-b]indolizin-8-yl)acrylamide], for which, in data set [1] (60 °C / 80 °C, 2 and 4 weeks), the “Chemical purity on storage (in words)” value is “substantially remained unchanged” and the “Overall stability of crystal (in words)” value is “extremely stable crystal”. In data set [1] (60 °C / 80 °C, 2 and 4 weeks, HPLC), the “Amount of related substances on storage (in words)” value is recorded as “substantially no increase in amount of related substances”. In addition, in data set [1] (60 °C / 80 °C, 2 and 4 weeks, compared to solvate crystal type “b” and amorphous solid), the “Crystal form and color tone on storage (in words)” value is “showed no changes”. Also, in data set [1] (60 °C), the “Change amount (purity) 2 weeks after” value is recorded as 0.06%, the “Purity 2 weeks after” value turned out to be 98.90%, the “Color tone change 2 weeks after” value was “Absent” and the “Change amount (purity) 4 weeks after” value worked out at 0.02%. Besides, in data set [1] (60 °C), the “Purity 4 weeks after” value was 98.86% and the “Color tone change 4 weeks after” value is recorded as “Absent”. In data set [1] (80 °C), the “Change amount (purity) 2 weeks after” value is listed as 0.05%, the “Purity 2 weeks after” value was determined as 98.89%, the “Color tone change 2 weeks after” value is on record as “Absent” and the “Change amount (purity) 4 weeks after” value is on record as 0.07%. Also, in data set [1] (80 °C), the “Purity 4 weeks after” value was determined as 98.91% and the “Color tone change 4 weeks after” value is on record as “Absent”. Besides, the “Purity at the beginning” value in data set [1] (storage at 60 °C series) amounted to 98.84%. For the same compound, the “Purity at the beginning” value in data set [1] (storage at 80 °C series) is 98.84%. Moreover, the “Hygroscopicity, storage stability, etc. (in words)” value in data set [3] is listed as “better properties in terms of hygroscopicity, storage stability, etc”. In data set [2] (95% RH, 25 °C), this compound showed a Weight increase of 1.28%. Further, the “Hygroscopicity (in words)” value in data set [2] (compared to the solvate crystal type “b” and amorphous solid) is given as “less hygroscopic”. Besides, the Weight increase result in data set [2] (up to 75% RH, 25 °C) is “less than 0.4%”.

For the compound `C=CC(=O)N[C@H]1C=C(C)c2c(-c3cnc4ccccc4c3)c3c(N)ncnc3n2C1` [Amorphous solid, (S)—N-(4-amino-6-methyl-5-(quinolin-3-yl)-8,9-dihydropyrimido[5,4-b]indolizin-8-yl)acrylamide], in data set [1] (60 °C), the “Change amount (purity) 2 weeks after” value was −0.66%, the “Purity 2 weeks after” value amounted to 98.09%, the “Color tone change 2 weeks after” value is “Absent” and the “Change amount (purity) 4 weeks after” value is on record as −0.85%. In data set [1] (60 °C), the “Purity 4 weeks after” value turned out to be 97.90% and the “Color tone change 4 weeks after” value is on record as “Absent”. Moreover, in data set [1] (80 °C), the “Change amount (purity) 2 weeks after” value is listed as −6.38%, the “Purity 2 weeks after” value worked out at 92.37%, the “Color tone change 2 weeks after” value is on record as “Coloring” and the “Change amount (purity) 4 weeks after” value is given as −7.90%. Further, in data set [1] (80 °C), the “Purity 4 weeks after” value is 90.85% and the “Color tone change 4 weeks after” value is “Coloring”. The “Purity at the beginning” value in data set [1] (storage at 60 °C series) is 98.75%. Moreover, in data set [1] (storage at 80 °C series), the “Purity at the beginning” value was 98.75%. This compound also displayed a Weight increase in data set [2] (50% RH, 25 °C) not below 2%. Further, the Weight increase result in data set [2] (95% RH, 25 °C) is “about 10%”.

In the case of `C=CC(=O)N[C@H]1C=C(C)c2c(-c3cnc4ccccc4c3)c3c(N)ncnc3n2C1` [compound (1), (S)—N-(4-amino-6-methyl-5-(quinolin-3-yl)-8,9-dihydropyrimido[5,4-b]indolizin-8-yl)acrylamide], the “EGFR-inhibiting action (in words)” value in the data set with EGFR is given as “excellent EGFR-inhibiting action”.
